The results in this text go back to ChEMBL document CHEMBL1136341, “Synthesis and evaluation of chiral bicyclic proline FKBP12 ligands” (Bioorg Med Chem Lett, 2003).

Usually IC50 stands for the concentration at which inhibition is half-maximal. Higher therefore signals weaker potency in that assay.

A short description of the test: In vitro binding affinity towards FKBP12 domain of peptidyl-propyl isomerase (PPIase).
Molecule `CCC(C)(C)C(=O)C(=O)N1C2CCC(C2)[C@H]1C(=O)SCCCc1ccccc1` (stereo partly specified) registered a 50% inhibitory concentration (IC50) of 2300 nM.

`CCC(C)(C)C(=O)C(=O)N1C2CCC(C2)[C@H]1C(=O)SCCC(c1ccccc1)c1ccccc1` (stereo partly specified): the IC50 was determined as 980 nM.

On to `O=C(SCCCc1ccccc1)[C@@H]1C2CCC(C2)N1S(=O)(=O)c1ccccc1` (stereo partly specified), for which the IC50 amounted to 910 nM.

`O=C(OCCCc1ccccc1)[C@@H]1C2CCC(C2)N1S(=O)(=O)Cc1ccccc1` (stereo partly specified) displayed an IC50 of 1300 nM.

For the molecule `CCC(C)(C)C(=O)C(=O)N1C2CCC(C2)[C@@H]1C(=O)OCCCc1ccccc1` (stereo partly specified), the IC50 is > 25000 nM.

As to `O=C(OCCCc1ccccc1)[C@@H]1C2CCC(C2)N1S(=O)(=O)c1ccccc1` (stereo partly specified), the IC50 is 650 nM.

`COc1cc(C(=O)C(=O)N2C3CCCC2C(=O)OCCCCOC3=O)cc(OC)c1OC` had an IC50 of 0.28 nM.

As to `CCC(C)(C)C(=O)C(=O)N1C2CCC(C2)[C@@H]1C(=O)SCCC(c1ccccc1)c1ccccc1` (stereo partly specified), the IC50 was > 25000 nM.

Consider `CCC(C)(C)C(=O)C(=O)N1C2CCC(C2)[C@@H]1C(=O)SCCCc1ccccc1` (stereo partly specified), for which the half-inhibitory concentration (IC50) was found to be 22000 nM.

`O=C1CC2CCCC(Sc3ccccc3)(C1)C2` (stereo unspecified) yielded an IC50 of 9.2 nM.

Turning to `CCC(C)(C)C(=O)C(=O)N1C2CCC(C2)[C@@H]1C(=O)OCCCc1ccncc1` (stereo partly specified), the IC50 was > 25000 nM.

`CCC(C)(C)C(=O)C(=O)N1C2CCC(C2)[C@H]1C(=O)OCCCc1ccncc1` (stereo partly specified) returned an IC50 of 15000 nM.

The molecule `CCC(C)(C)C(=O)C(=O)N1C2CCC(C2)[C@H]1C(=O)OCCCCc1ccccc1` (stereo partly specified) returned a half-inhibitory concentration (IC50) of 710 nM.

In turn, `CCC(C)(C)C(=O)C(=O)N1C2CCC(C2)[C@@H]1C(=O)OCCCCc1ccccc1` (stereo partly specified) returned an IC50 of 5100 nM.

On to `CCC(C)(C)C(=O)C(=O)N1C2CCC(C2)[C@H]1C(=O)OCCCc1ccccc1` (stereo partly specified), for which the IC50 came to 670 nM.

In the case of `O=C(SCCCc1ccccc1)[C@@H]1C2CCC(C2)N1S(=O)(=O)Cc1ccccc1` (stereo partly specified), the IC50 was 720 nM.
